Reference: patent US10208015B2, “Aryl-triazolyl pyridines as pest control agents” (BAYER ANIMAL HEALTH GMBH, priority 2014, dated 2019)
Where two headings read alike, the source gives them in different places.

How the values were obtained:
[1] = logP by HPLC on reversed-phase column (C18), EEC Directive 79/831 Annex V.A8; type: physicochemical
Ctenocephalides felis [2] = assay: Ctenocephalides felis in vitro contact test with adult cat fleas; type: in vivo; conditions: application rate 500 g/ha (5 μg/cm^2), after 48 h
Experimental: Ctenocephalides felis—In Vitro Contact Tests with Adult Cat Fleas
(§1) For the coating of the test tubes, 9 mg of active compound are first dissolved in 1 ml of acetone p.a. and then diluted to the desired concentration with acetone p.a. 250 μl of the solution are distributed homogeneously on the inner walls and the base of a 25 ml test tube by turning and rocking on an orbital shaker (rocking rotation at 30 rpm for 2 h). With 900 ppm active compound solution and internal surface 44.7 cm^2, given homogeneous distribution, an area-based dose of 5 μg/cm^2 is achieved.
After the solvent has evaporated off, the tubes are populated with 5-10 adult cat fleas (Ctenocephalides felis), sealed with a perforated plastic lid and incubated in a horizontal position at room temperature and ambient humidity. After 48 h, efficacy is determined. To this end, the test tubes are stood upright and the fleas are knocked to the base of the tube. Fleas which remain motionless at the base or move in an uncoordinated manner are considered to be dead or moribund.
100% efficacy means that all the fleas were dead or moribund. 0% efficacy means that no fleas were harmed.

Rhipicephalus sanguineus = Rhipicephalus sanguineus in vitro contact test with adult brown dog ticks; type: in vivo; conditions: application rate 500 g/ha (5 μg/cm^2), after 48 h
Experimental: Rhipicephalus sanguineus—In Vitro Contact Tests with Adult Brown Dog Ticks
as §1
After the solvent has evaporated off, the tubes are populated with 5-10 adult dog ticks (Rhipicephalus sanguineus), sealed with a perforated plastic lid and incubated in a horizontal position in the dark at room temperature and ambient humidity. After 48 h, efficacy is determined. To this end, the ticks are knocked to the floor of the tube and incubated on a hotplate at 45-50° C. for not more than 5 min. Ticks which remain motionless on the floor or move in such an uncoordinated manner that they are unable to deliberately avoid the heat by climbing upwards are considered to be dead or moribund.
An efficacy of 100% means that all the ticks were dead or moribund. 0% efficacy means that none of the ticks had been harmed.

Amblyomma hebraeum = Amblyomma hebraeum test (tick nymphs, immersion); type: in vivo; conditions: application rate 100 ppm, after 42 days
Excerpt: Amblyomma hebaraeum Test • Solvent: dimethyl sulphoxide […] Tick nymphs (Amblyomma hebraeum) are placed into perforated plastic beakers and immersed in the desired concentration for one minute. The ticks are transferred on filter paper into a Petri dish and stored in a climate-controlled cabinet.

[3] = test system: Boophilus microplus Parkhurst strain, SP-resistant; assay: Boophilus microplus dip test; type: in vivo; conditions: application rate 100 ppm, assessed after 7 days
Experimental: Boophilus microplus—Dip Test
• Test animals: cattle ticks (Boophilus microplus) Parkhurst strain, SP-resistant • Solvent: dimethyl sulphoxide
10 mg of active compound are dissolved in 0.5 ml of dimethyl sulphoxide. To produce a suitable formulation, the active compound solution is diluted with water to the concentration desired in each case.
This active compound preparation is pipetted into tubes. 8-10 engorged adult female cattle ticks (Boophilus microplus) are transferred into a further tube with holes. The tube is immersed into the active compound preparation, and all the ticks are completely wetted. After the liquid has run out, the ticks are transferred on filter discs into plastic dishes and stored in a climate-controlled room.
Efficacy is assessed after 7 days by laying of fertile eggs. Eggs which are not visibly fertile are stored in a climate-controlled cabinet until the larvae hatch after about 42 days. An efficacy of 100% means that none of the ticks has laid any fertile eggs; 0% means that all the eggs are fertile.

Boophilus microplus = Boophilus microplus injection test; type: in vivo; conditions: application rate 20 μg/animal, assessed after 7 days
Experimental: Boophilus microplus—Injection Test • Solvent: dimethyl sulphoxide […] The animals are transferred into dishes and kept in a climate-controlled room. Efficacy is assessed after 7 days by laying of fertile eggs. Eggs which are not visibly fertile are stored in a climate-controlled cabinet until the larvae hatch after about 42 days.

Ctenocephalides felis [4] = assay: Ctenocephalides felis oral test; type: in vivo; conditions: application rate 100 ppm in citrated cattle blood, after 2 days
Excerpt: Ctenocephalides felis—Oral Test • Solvent: dimethyl sulphoxide […] Dilution with citrated cattle blood gives the desired concentration. About 20 unfed adult cat fleas (Ctenocephalides felis) are placed into a chamber which is closed at the top and bottom with gauze. A metal cylinder whose bottom end is closed with parafilm is placed onto the chamber. The cylinder contains the blood/active compound preparation, which can be imbibed by the fleas through the parafilm membrane.

Lucilia cuprina = Lucilia cuprina test; type: in vivo; conditions: application rate 100 ppm, L1 larvae, after 2 days
Experimental: (§2) • Solvent: dimethyl sulphoxide
(§3) To produce a suitable preparation of active compound, 10 mg of active compound are mixed with 0.5 ml of dimethyl sulphoxide, and the concentrate is diluted with water to the desired concentration.
About 20 L1 larvae of the Australian sheep blowfly (Lucilia cuprina) are transferred into a test vessel containing minced horsemeat and the active compound preparation of the desired concentration.
After 2 days, the kill in % is determined. 100% means that all the larvae have been killed; 0% means that no larvae have been killed.

Musca domestica = Musca domestica test; type: in vivo; conditions: application rate 100 ppm, adult houseflies, after 2 days
Experimental: as §2, §3
Vessels containing a sponge treated with sugar solution and the active compound preparation of the desired concentration are populated with 10 adult houseflies (Musca domestica).
After 2 days, the kill in % is determined. 100% means that all of the flies have been killed; 0% means that none of the flies have been killed.

Myzus persicae = Myzus persicae spray test; type: in vivo; conditions: application rate 100 g/ha, after 6 days
Experimental: Myzus Persicae—Spray Test […] To produce further test concentrations, the preparation is diluted with emulsifier-containing water. Discs of Chinese cabbage leaves (Brassica pekinensis) infested by all stages of the green peach aphid (Myzus persicae) are sprayed with an active compound preparation of the desired concentration.

Phaedon cochleariae = Phaedon cochleariae spray test; type: in vivo; conditions: application rate 100 g/ha, after 7 days
Experimental: Phaedon Cochleariae—Spray Test
(§4) • Solvent: 78.0 parts by weight of acetone • 1.5 parts by weight of dimethylformamide • Emulsifier: alkylaryl polyglycol ether
(§5) To produce a suitable preparation of active compound, 1 part by weight of active compound is dissolved using the stated parts by weight of solvent and made up with water containing an emulsifier concentration of 1000 ppm until the desired concentration is attained. To produce further test concentrations, the preparation is diluted with emulsifier-containing water.
After 7 days, the efficacy in % is determined. 100% means that all the beetle larvae have been killed; 0% means that no beetle larvae have been killed.

Spodoptera frugiperda = Spodoptera frugiperda spray test; type: in vivo; conditions: application rate 100 g/ha, after 7 days
Experimental: Spodoptera Frugiperda—Spray Test
as §4, §5
Leaf discs of maize (Zea mays) are sprayed with an active compound preparation of the desired concentration and, after drying, populated with caterpillars of the armyworm (Spodopterafrugiperda).
After 7 days, the efficacy in % is determined. 100% means that all the caterpillars have been killed; 0% means that no caterpillars have been killed.

Tetranychus urticae = Tetranychus urticae spray test, OP-resistant; type: in vivo; conditions: application rate 100 g/ha, after 6 days
Experimental: Tetranychus Urticae—Spray Test, OP-Resistant
as §4
To produce further test concentrations, the preparation is diluted with emulsifier-containing water.
After 6 days, the efficacy in % is determined. 100% means that all the spider mites have been killed; 0% means that none of the spider mites have been killed.

[5] = test system: Anopheles gambiae strain RSPH (homozygot kdr); conditions: application rate 40 mg/m^2, exposure 30 minutes, 24 hours after contact
Experimental: Anopheles Test (ANPHGB Surface Treatment)
(§6) • Solvent: acetone+2000 ppm rapeseed oil methyl ester (RME)
The exposure time is 30 minutes.
(§7) 24 hours after contact with the treated surface, mortality in % is determined. 100% means that all the mosquitoes have been killed; 0% means that none of the mosquitoes have been killed.

[6] = test system: Anopheles funestus strain FUMOZ-R; conditions: application rate 40 mg/m^2, exposure 30 minutes, 24 hours after contact
Experimental: Anopheles Test (ANPHFU Surface Treatment)
as §6
The exposure time is 30 minutes.
as §7

[7] = HPLC, C18, acetonitrile (0.1% formic acid)/water (0.09% formic acid) gradient

chromatographic logP ([1]; reversed-phase C18 HPLC column, HPLC, C18, acetonitrile (0.1% formic acid)/water (0.09% formic acid) gradient, read-out: logP)	chromatographic logP ([1]; reversed-phase C18 HPLC column, HPLC-MS method a), read-out: log P (HPLC-MS))	Compound	efficacy (fleas dead or moribund) (Ctenocephalides felis [2]) [%]	efficacy (ticks dead or moribund) (Rhipicephalus sanguineus) [%]	efficacy (kill in %) (Amblyomma hebraeum) [%]	efficacy (laying of fertile eggs) [3] [%]	efficacy (laying of fertile eggs) (Boophilus microplus) [%]	efficacy (kill in %) (Ctenocephalides felis [4]) [%]	efficacy (kill in %) (Lucilia cuprina) [%]	efficacy (kill in %) (Musca domestica) [%]	efficacy in % (Myzus persicae) [%]	efficacy in % (Phaedon cochleariae) [%]	efficacy in % (Spodoptera frugiperda) [%]	efficacy in % (Tetranychus urticae) [%]	logP [1, 7]	efficacy (mortality in %) [5]	efficacy (mortality in %) [6]
3.3	3.33	Cc1cc(C(F)(C(F)(F)F)C(F)(F)F)cc(C)c1-n1cc(-c2cnc(C)c(C(=O)NC3CC3)c2)nn1 [Example 1, N-cyclopropyl-5-[1-[2,6-dimethyl-4-[1,2,2,2-tetrafluoro-1-(trifluoromethyl)ethyl]phenyl]triazol-4-yl]-2-methylpyridine-3-carboxamide]	100	100	80	100	100	100	100	100	90	100	100	100	–	–	–
–	–	Cc1cc(C(F)(C(F)(F)F)C(F)(F)F)cc(C)c1-n1cc(-c2cnc(Cl)c(C(=O)NC3CC3)c2)nn1 [Example 2]	100	100	100	100	100	100	100	100	90	100	100	90	3.8	–	–
–	–	Cc1ncc(-c2cn(-c3c(Cl)cc(C(F)(C(F)(F)F)C(F)(F)F)cc3Cl)nn2)cc1C(=O)NC1CC1 [Example 5]	100	100	100	100	100	100	100	100	–	100	100	100	3.4	–	–
–	–	O=C(NC1CC1)c1cc(-c2cn(-c3c(Cl)cc(C(F)(C(F)(F)F)C(F)(F)F)cc3C(F)(F)F)nn2)cnc1Cl [Example 16]	–	–	–	100	100	100	100	100	90	100	100	100	4.0	90-100%	90-100%
